Reference: US6667413B2, “Uracil compounds and use thereof” (Sumitomo Chemical Company, Limited, priority 1999, dated 2003)

Tests used:
Assay type in all cases: in vivo
[1] = test system: Broadleaf signalgrass (Brachiaria platyphylla); test: Test Example 6: foliar treatment, herbicidal activity index; parameters: key: 0: no or little difference in the degree of germination or growth between the treated and the untreated tested plants at the time of examination; 10: the test plants died complete or their germination or growth was completely inhibited; settings: foliar spray, 4 days after application, index 0 to 10
Method: (§1) A plastic pot (27 cm×19 cm×7 cm) was filled with soil and then seeded with Johnsongrass (Sorghum halepense), Giant foxtail (Setaria faberi), barnyardgrass (Echinochloa crus-galli), large crabgrass (Digitaria sanguinalis), Broadleaf signalgrass (Brachiaria platyphylla) and wild oat (Avena fatua). These test plants were grown in a greenhouse for 25 days. After then, each of the compounds 3-11, 4-22, B and C was formulated into an emulsifiable concentrate according to Formulation Example 2 and then diluted to the prescribed amount with water containing a spreading agent and the dilution was uniformly sprayed over the foliage of the test plants with a sprayer at a rate of 1000 liters per hectare. After the application, the test plants were grown in the greenhouse for 4 days, and the herbicidal activity was examined. (In the Table 9, the test plants are shown as follows. Johnsongrass: J, Giant foxtail: GF, Barnyardgrass: B Large crabgrass: LC, Broadleaf signalgrass: BC wild oat: W

[2] = test system: Giant foxtail (Setaria faberi); test: as above; parameters: key: 0: no or little difference in the degree of germination or growth between the treated and the untreated tested plants at the time of examination; 10: the test plants died complete or their germination or growth was completely inhibited; settings: foliar spray, 4 days after application, index 0 to 10
Method: as §1

[3] = test system: Johnsongrass (Sorghum halepense); test: as above; parameters: key: 0: no or little difference in the degree of germination or growth between the treated and the untreated tested plants at the time of examination; 10: the test plants died complete or their germination or growth was completely inhibited; settings: foliar spray, 4 days after application, index 0 to 10
Method: as §1

[4] = test system: barnyardgrass (Echinochloa crus-galli); test: as above; parameters: key: 0: no or little difference in the degree of germination or growth between the treated and the untreated tested plants at the time of examination; 10: the test plants died complete or their germination or growth was completely inhibited; settings: foliar spray, 4 days after application, index 0 to 10
Method: as §1

[5] = test system: large crabgrass (Digitaria sanguinalis); test: as above; parameters: key: 0: no or little difference in the degree of germination or growth between the treated and the untreated tested plants at the time of examination; 10: the test plants died complete or their germination or growth was completely inhibited; settings: foliar spray, 4 days after application, index 0 to 10
Method: as §1

wild oat (Avena fatua) = test: as above; parameters: key: 0: no or little difference in the degree of germination or growth between the treated and the untreated tested plants at the time of examination; 10: the test plants died complete or their germination or growth was completely inhibited; settings: foliar spray, 4 days after application, index 0 to 10
Method: as §1

[6] = test system: Ivyleaf morningglory (Ipomoea hederacea); test: Test Example 1: foliar treatment, herbicidal activity; settings: foliar spray, 125 g/ha, 7 days after application
Method: (§2) A cylindrical plastic pot having a diameter of 10 cm and a depth of 10 cm was filled with soil and then seeded with Ivyleaf morningglory (Ipomoea hederacea), velvetleaf (Abutilon theophrasti), barnyardgrass (Echinochloa crus-galli) and blackgrass (Alopecurus myosuroides). These test plants were grown in a greenhouse for 9 days. Then, each of compounds 1-1,2-1, 3-1,3-2, 3-11 and 3-12 was formulated into an emulsifiable concentrate according to Formulation Example 2 and then diluted to the prescribed amount with water containing a spreading agent and the dilution was uniformly sprayed over the foliage of the test plants with a sprayer at a rate of 1000 liters per hectare After the application, the test plants were grown in the greenhouse for 7 days, and the herbicidal activity of the applied composition was determined.

[7] = test system: barnyardgrass (Echinochloa crus-galli); test: as above; settings: foliar spray, 125 g/ha, 7 days after application
Method: as §2

[8] = test system: blackgrass (Alopecurus myosuroides); test: as above; settings: foliar spray, 125 g/ha, 7 days after application
Method: as §2

[9] = test system: velvetleaf (Abutilon theophrasti); test: as above; settings: foliar spray, 125 g/ha, 7 days after application
Method: as §2

[10] = test system: Ivyleaf morningglory (Ipomoea hederacea); test: Test Example 4: soil surface treatment, herbicidal activity; settings: sprayed over the surface of the soil, 2000 g/ha, 7 days after application
Excerpt: (§3) A cylindrical plastic pot having a diameter of 10 cm and a depth of 10 cm was filled with soil and then seeded with Ivyleaf morningglory (Ipomoea hederacea), velvetleaf (Abutilon theophrasti), barnyardgrass (Echinochloa crus-galli) and blackgrass (Alopecurus myosuroides). Then, each of the compounds 3-2,3-11, 3-12, 3-16, 3-20 and 3-198 was formulated into an emulsifiable concentrate according to Formulation Example 2 and then diluted to the prescribed amount with water, and the dilution was uniformly sprayed over the surface of the soil with a sprayer at a rate of 1000 liters per hectare. After the application, the test plants were grown in the greenhouse for 7 days, and the herbicidal activity of the applied composition was examined.

[11] = test system: barnyardgrass (Echinochloa crus-galli); test: as above; settings: sprayed over the surface of the soil, 2000 g/ha, 7 days after application
Excerpt: as §3

[12] = test system: blackgrass (Alopecurus myosuroides); test: as above; settings: sprayed over the surface of the soil, 2000 g/ha, 7 days after application
Excerpt: as §3

[13] = test system: velvetleaf (Abutilon theophrasti); test: as above; settings: sprayed over the surface of the soil, 2000 g/ha, 7 days after application
Excerpt: as §3

## COc1ccccc1Oc1cc(-n2c(=O)cc(C(F)(F)F)n(C)c2=O)c(F)cc1C#N [B, reference compound]
[1]; 0.33 g/ha
  Herbicidal activity BC: 2
[1]; 1 g/ha
  Herbicidal activity BC: 6
[1]; 3.3 g/ha
  Herbicidal activity BC: 8
[2]; 0.33 g/ha
  Herbicidal activity GF: 3
[2]; 1 g/ha
  Herbicidal activity GF: 5
[2]; 3.3 g/ha
  Herbicidal activity GF: 7
[3]; 0.33 g/ha
  Herbicidal activity J: 2
[3]; 1 g/ha
  Herbicidal activity J: 7
[3]; 3.3 g/ha
  Herbicidal activity J: 7
[4]; 0.33 g/ha
  Herbicidal activity B: 2
[4]; 1 g/ha
  Herbicidal activity B: 6
[4]; 3.3 g/ha
  Herbicidal activity B: 7
[5]; 0.33 g/ha
  Herbicidal activity LC: 3
[5]; 1 g/ha
  Herbicidal activity LC: 7
[5]; 3.3 g/ha
  Herbicidal activity LC: 8
Wild oat (Avena fatua); 0.33 g/ha
  Herbicidal activity W: 2
Wild oat (Avena fatua); 1 g/ha
  Herbicidal activity W: 5
Wild oat (Avena fatua); 3.3 g/ha
  Herbicidal activity W: 7

## COC(=O)c1ccccc1Oc1cc(-n2c(=O)cc(C(F)(F)F)n(C)c2=O)c(F)cc1C#N [C, reference compound]
[1]; 0.33 g/ha
  Herbicidal activity BC: 2
[1]; 1 g/ha
  Herbicidal activity BC: 3
[1]; 3.3 g/ha
  Herbicidal activity BC: 6
[2]; 0.33 g/ha
  Herbicidal activity GF: 1
[2]; 1 g/ha
  Herbicidal activity GF: 3
[2]; 3.3 g/ha
  Herbicidal activity GF: 4
[3]; 0.33 g/ha
  Herbicidal activity J: 2
[3]; 1 g/ha
  Herbicidal activity J: 4
[3]; 3.3 g/ha
  Herbicidal activity J: 6
[4]; 0.33 g/ha
  Herbicidal activity B: 1
[4]; 1 g/ha
  Herbicidal activity B: 4
[4]; 3.3 g/ha
  Herbicidal activity B: 6
[5]; 0.33 g/ha
  Herbicidal activity LC: 2
[5]; 1 g/ha
  Herbicidal activity LC: 3
[5]; 3.3 g/ha
  Herbicidal activity LC: 5
Wild oat (Avena fatua); 0.33 g/ha
  Herbicidal activity W: 1
Wild oat (Avena fatua); 1 g/ha
  Herbicidal activity W: 3
Wild oat (Avena fatua); 3.3 g/ha
  Herbicidal activity W: 5

## CCOC(=O)C(C)Oc1ccccc1Oc1cc(-n2c(=O)cc(C(F)(F)F)n(C)c2=O)c(F)cc1Cl (stereo not drawn) [Compound 3-2, Ethyl 2-[2-{2-chloro-4-fluoro-5-[3-methyl-2,6-dioxo-4-(trifluoromethyl)-1,2,3,6-tetrahydropyrimidin-1-yl]phenoxy}phenoxy]propionate]
[6]
  growth of Ivyleaf morningglory: completely controlled
[7]
  growth of barnyardgrass: completely controlled
[8]
  growth of blackgrass: completely controlled
[9]
  growth of velvetleaf: completely controlled
[10]
  emergence of Ivyleaf morningglory: completely controlled
[11]
  emergence of barnyardgrass: completely controlled
[12]
  emergence of blackgrass: completely controlled
[13]
  emergence of velvetleaf: completely controlled

## COC(=O)COc1ccccc1Oc1cc(-n2c(=O)cc(C(F)(F)F)n(C)c2=O)c(F)cc1Cl [Compound 3-11, Methyl [2-{2-chloro-4-fluoro-5-[3-methyl-2,6-dioxo-4-(trifluoromethyl)-1,2,3,6-tetrahydropyrimidin-1-yl]phenoxy}phenoxy]acetate]
[6]
  growth of Ivyleaf morningglory: completely controlled
[7]
  growth of barnyardgrass: completely controlled
[8]
  growth of blackgrass: completely controlled
[9]
  growth of velvetleaf: completely controlled
[10]
  emergence of Ivyleaf morningglory: completely controlled
[11]
  emergence of barnyardgrass: completely controlled
[12]
  emergence of blackgrass: completely controlled
[13]
  emergence of velvetleaf: completely controlled
[1]; 0.33 g/ha
  Herbicidal activity BC: 8
[1]; 1 g/ha
  Herbicidal activity BC: 9
[1]; 3.3 g/ha
  Herbicidal activity BC: 10
[2]; 0.33 g/ha
  Herbicidal activity GF: 8
[2]; 1 g/ha
  Herbicidal activity GF: 9
[2]; 3.3 g/ha
  Herbicidal activity GF: 9
[3]; 0.33 g/ha
  Herbicidal activity J: 8
[3]; 1 g/ha
  Herbicidal activity J: 9
[3]; 3.3 g/ha
  Herbicidal activity J: 10
[4]; 0.33 g/ha
  Herbicidal activity B: 7
[4]; 1 g/ha
  Herbicidal activity B: 8
[4]; 3.3 g/ha
  Herbicidal activity B: 10
[5]; 0.33 g/ha
  Herbicidal activity LC: 8
[5]; 1 g/ha
  Herbicidal activity LC: 9
[5]; 3.3 g/ha
  Herbicidal activity LC: 10
Wild oat (Avena fatua); 0.33 g/ha
  Herbicidal activity W: 8
Wild oat (Avena fatua); 1 g/ha
  Herbicidal activity W: 10
Wild oat (Avena fatua); 3.3 g/ha
  Herbicidal activity W: 10

## CCOC(=O)COc1ccccc1Oc1cc(-n2c(=O)cc(C(F)(F)F)n(C)c2=O)c(F)cc1Cl [Compound 3-12, Ethyl [2-{2-chloro-4-fluoro-5-[3-methyl-2,6-dioxo-4-(trifluoromethyl)-1,2,3,6-tetrahydropyrimidin-1-yl]phenoxy}phenoxy]acetate]
[6]
  growth of Ivyleaf morningglory: completely controlled
[7]
  growth of barnyardgrass: completely controlled
[8]
  growth of blackgrass: completely controlled
[9]
  growth of velvetleaf: completely controlled
[10]
  emergence of Ivyleaf morningglory: completely controlled
[11]
  emergence of barnyardgrass: completely controlled
[12]
  emergence of blackgrass: completely controlled
[13]
  emergence of velvetleaf: completely controlled

## COC(=O)COc1ccccc1Oc1cc(-n2c(=O)cc(C(F)(F)F)n(C)c2=O)c(F)cc1C#N [Compound 4-22]
[1]; 0.33 g/ha
  Herbicidal activity BC: 8
[1]; 1 g/ha
  Herbicidal activity BC: 8
[1]; 3.3 g/ha
  Herbicidal activity BC: 9
[2]; 0.33 g/ha
  Herbicidal activity GF: 7
[2]; 1 g/ha
  Herbicidal activity GF: 8
[2]; 3.3 g/ha
  Herbicidal activity GF: 10
[3]; 0.33 g/ha
  Herbicidal activity J: 8
[3]; 1 g/ha
  Herbicidal activity J: 8
[3]; 3.3 g/ha
  Herbicidal activity J: 9
[4]; 0.33 g/ha
  Herbicidal activity B: 8
[4]; 1 g/ha
  Herbicidal activity B: 9
[4]; 3.3 g/ha
  Herbicidal activity B: 9
[5]; 0.33 g/ha
  Herbicidal activity LC: 9
[5]; 1 g/ha
  Herbicidal activity LC: 9
[5]; 3.3 g/ha
  Herbicidal activity LC: 9
Wild oat (Avena fatua); 0.33 g/ha
  Herbicidal activity W: 8
Wild oat (Avena fatua); 1 g/ha
  Herbicidal activity W: 9
Wild oat (Avena fatua); 3.3 g/ha
  Herbicidal activity W: 10
